Columns and labels:
[1] = test system: THP-1 (AML) cells; assay: LSD1 CD11b cellular assay (flow cytometry); format: cell-based; settings: Homo sapiens, THP-1, 96 h; CD11b expressing cells, 4 days incubation
Description: To analyze LSD1 inhibitor efficacy in cells, a CD11b flow cytometry assay was performed. LSD1 inhibition induces CD11b expression in THP-1 (AML) cells which can be measured by flow cytometry. […] LSD1 test compounds were serially diluted in DMSO. The dilutions were added to each well accordingly to a final concentration of 0.2% DMSO. The cells were incubated at 37 degrees Celsius in 5% CO2 for 4 days. 250 μL of each well was transferred to a well in a 96 well round bottom plate. The plate was centrifuged at 1200 rpm at 4 degrees Celsius in a Beckman Coulter Alegra 6KR centrifuge for 5 minutes. The media was removed leaving the cells at the bottom of the wells. The cells were washed in 100 μL cold HBSS (Hank's Balanced Salt Solution) plus 2% BSA (Bovine Serum Albumin) solution and centrifuged at 1200 rpm at 4 degrees Celsius for 5 minutes. The wash was removed. […] The cells were centrifuged and washed two times in 100 μL HBSS plus 2% BSA. After the final spin the cells were resuspended in 100 μL HBSS plus 2% BSA containing 1 ug/mL DAPI (4′,6-diamidino-2-phenylindole). The cells were then analyzed by flow cytometry in a BD FACSAria machine. Cells were analyzed for CD11b expression. The percent of CD11b expressing cells for each inhibitor concentration was used to determine an IC50 curve for each compound analyzed.

[2] = molecular target: full-length human LSD1 (Homo sapiens (Human), UniProt O60341); assay: In vitro enzyme inhibition assay LSD-1 (TR-FRET); format: biochemical; settings: H3K4me1-biotin peptide
Description: This assay determines the ability of a test compound to inhibit LSD1 demethylase activity.
The enzymatic assay of LSD1 activity is based on Time Resolved-Fluorescence Resonance Energy Transfer (TR-FRET) detection.
Plates were read by EnVision Multilabel Reader in TR-FRET mode (excitation at 320 nm, emission at 615 nm and 665 nm) after 1 hour incubation at room temperature.
The ability of the compounds disclosed herein to inhibit LSD1 activity was quantified and the respective IC50 value was determined.

Structure (SMILES) | IC50 [1] [nM] | IC50 [2] [nM]
N#Cc1ccc(-c2cn(Cc3ccccc3)c(=O)c(N3CCC(N)CC3)n2)cc1 [Example 1, 4-[6-(4-aminopiperidin-1-yl)-4-benzyl-5-oxo-4,5-dihydropyrazin-2-yl]benzonitrile] | 100 to 1000 | < 100
Cc1ccc(Cn2cc(-c3ccc(C#N)cc3)nc(N3CCC(N)CC3)c2=O)cc1 [Example 2, 4-[6-(4-aminopiperidin-1-yl)-4-[(4-methylphenyl)methyl]-5-oxo-4,5-dihydropyrazin-2-yl]benzonitrile] | 100 to 1000 | < 100
N#Cc1ccc(-c2cn(Cc3ccccc3F)c(=O)c(N3CCC(N)CC3)n2)cc1 [Example 3, 4-[6-(4-aminopiperidin-1-yl)-4-[(2-fluorophenyl)methyl]-5-oxo-4,5-dihydropyrazin-2-yl]benzonitrile] | 100 to 1000 | < 100
N#Cc1ccc(-c2cn(Cc3cccc(Cl)c3)c(=O)c(N3CCC(N)CC3)n2)cc1 [Example 4, 4-[6-(4-aminopiperidin-1-yl)-4-(3-chloro-benzyl)-5-oxo-4,5-dihydro-pyrazin-2-yl]-benzonitrile] | 1000 to 10000 | < 100
N#Cc1ccc(-c2cn(CC3CC3)c(=O)c(N3CCC(N)CC3)n2)cc1F [Example 7, 4-[6-(4-amino-piperidin-1-yl)-4-cyclopropylmethyl-5-oxo-4,5-dihydro-pyrazin-2-yl]-2-fluoro-benzonitrile] | 1000 to 10000 | < 100
N#Cc1ccc(-c2cn(Cc3cccc(F)c3)c(=O)c(N3CCC(N)CC3)n2)cc1 [Example 8, 4-[6-(4-aminopiperidin-1-yl)-4-[(3-fluorophenyl)methyl]-5-oxo-4,5-dihydropyrazin-2-yl]benzonitrile] | 100 to 1000 | < 100
N#Cc1ccc(-c2cn(Cc3ccc(F)cc3)c(=O)c(N3CCC(N)CC3)n2)cc1 [Example 9, 4-[6-(4-aminopiperidin-1-yl)-4-[(4-fluorophenyl)methyl]-5-oxo-4,5-dihydropyrazin-2-yl]benzonitrile] | 100 to 1000 | < 100
COc1cccc(Cn2cc(-c3ccc(C#N)cc3)nc(N3CCC(N)CC3)c2=O)c1 [Example 10, 4-[6-(4-aminopiperidin-1-yl)-4-[(3-methoxyphenyl)methyl]-5-oxo-4,5-dihydropyrazin-2-yl]benzonitrile] | 100 to 1000 | < 100
COc1ccc(Cn2cc(-c3ccc(C#N)cc3)nc(N3CCC(N)CC3)c2=O)cc1 [Example 11, 4-[6-(4-aminopiperidin-1-yl)-4-[(4-methoxyphenyl)methyl]-5-oxo-4,5-dihydropyrazin-2-yl]benzonitrile] | 100 to 1000 | < 100
C[C@H](c1ccccc1)n1cc(-c2ccc(C#N)cc2)nc(N2CCC(N)CC2)c1=O [Example 12, 4-[6-(4-aminopiperidin-1-yl)-5-oxo-4-[(1R)-1-phenylethyl]-4,5-dihydropyrazin-2-yl]benzonitrile] | 1000 to 10000 | < 100
C[C@@H](c1ccccc1)n1cc(-c2ccc(C#N)cc2)nc(N2CCC(N)CC2)c1=O [Example 13, 4-[6-(4-aminopiperidin-1-yl)-5-oxo-4-[(1S)-1-phenylethyl]-4,5-dihydropyrazin-2-yl]benzonitrile] | 1000 to 10000 | < 100
N#Cc1ccc(-c2cn(CC3CCOC3)c(=O)c(N3CCC(N)CC3)n2)cc1F (centres unmarked) [Example 14, 4-[6-(4-amino-piperidin-1-yl)-5-oxo-4-(tetrahydro-furan-3-ylmethyl)-4,5-dihydro-pyrazin-2-yl]-2-fluoro-benzonitrile] | 100 to 1000 | < 100
N#Cc1ccc(-c2cn(CC3CCOCC3)c(=O)c(N3CCC(N)CC3)n2)cc1F [Example 15, 4-[6-(4-amino-piperidin-1-yl)-5-oxo-4-(tetrahydro-pyran-4-ylmethyl)-4,5-dihydro-pyrazin-2-yl]-2-fluoro-benzonitrile] | 100 to 1000 | < 100
Cc1ccc(-c2c(-c3ccc(C#N)cc3)nc(NC[C@H]3CCNC3)c(=O)n2C)cc1 [Example 17, 4-[4-methyl-3-(4-methylphenyl)-5-oxo-6-{[(3S)-pyrrolidin-3-ylmethyl]amino}-4,5-dihydropyrazin-2-yl]benzonitrile] | < 100 | < 100
Cc1ccc(-c2c(-c3ccc(C#N)cc3)nc(NC[C@@H]3CCNC3)c(=O)n2C)cc1 [Example 18, 4-[4-methyl-3-(4-methylphenyl)-5-oxo-6-{[(3R)-pyrrolidin-3-ylmethyl]amino}-4,5-dihydropyrazin-2-yl]benzonitrile] | < 100 | < 100
Cc1ccc(-c2c(-c3ccc(C#N)nc3)nc(N3CCC(N)CC3)c(=O)n2C)cc1 [Example 19, 5-[6-(4-aminopiperidin-1-yl)-4-methyl-3-(4-methylphenyl)-5-oxo-4,5-dihydropyrazin-2-yl]pyridine-2-carbonitrile] | < 100 | < 100
CNC1CCN(c2nc(-c3ccc(C#N)cc3)c(-c3ccc(C)cc3)n(C)c2=O)CC1 [Example 20, 4-{4-methyl-6-[4-(methylamino)piperidin-1-yl]-3-(4-methylphenyl)-5-oxo-4,5-dihydropyrazin-2-yl}benzonitrile] | < 100 | < 100
Cc1ccc(-c2c(-c3ccc(C#N)cc3)nc(N3CCC(C)(N)CC3)c(=O)n2C)cc1 [Example 21, 4-[6-(4-amino-4-methylpiperidin-1-yl)-4-methyl-3-(4-methylphenyl)-5-oxo-4,5-dihydropyrazin-2-yl]benzonitrile] | 100 to 1000 | < 100
Cc1ccc(-c2c(-c3ccc(C#N)cc3)nc(N3CCCC(N)C3)c(=O)n2C)cc1 (centres unmarked) [Example 22, 4-[6-(3-aminopiperidin-1-yl)-4-methyl-3-(4-methylphenyl)-5-oxo-4,5-dihydropyrazin-2-yl]benzonitrile] | < 100 | < 100
Cc1ccc(-c2c(-c3ccc(C#N)cc3)nc(N3CCC4CNCC4C3)c(=O)n2C)cc1 (centres unmarked) [Example 23, 4-[4-methyl-3-(4-methylphenyl)-6-{octahydro-1H-pyrrolo[3,4-c]pyridin-5-yl}-5-oxo-4,5-dihydropyrazin-2-yl]benzonitrile] | < 100 | < 100
Cc1ccc(-c2c(-c3ccc(C#N)cc3)nc(N3CCC4(CCNC4)CC3)c(=O)n2C)cc1 [Example 24, 4-(6-{2,8-diazaspiro[4.5]decan-8-yl}-4-methyl-3-(4-methylphenyl)-5-oxo-4,5-dihydropyrazin-2-yl)benzonitrile] | < 100 | < 100
Cc1ccc(-c2c(-c3ccc(C#N)cc3)nc(N3CCC4CNCC4CC3)c(=O)n2C)cc1 (centres unmarked) [Example 25, 4-(6-{decahydropyrrolo[3,4-d]azepin-6-yl}-4-methyl-3-(4-methylphenyl)-5-oxo-4,5-dihydropyrazin-2-yl)benzonitrile] | < 100 | < 100
CCn1c(-c2ccc(C)cc2)c(-c2ccc(C#N)cc2)nc(N2CCC(N)CC2)c1=O [Example 26, 4-[6-(4-aminopiperidin-1-yl)-4-ethyl-3-(4-methylphenyl)-5-oxo-4,5-dihydropyrazin-2-yl]benzonitrile] | < 100 | < 100
CCn1c(-c2ccc(OC)cc2)c(-c2ccc(C#N)c(F)c2)cc(N2CCC(N)CC2)c1=O [Example 87, 4-[5-(4-aminopiperidin-1-yl)-1-ethyl-2-(4-methoxyphenyl)-6-oxopyridin-3-yl]-2-fluorobenzonitrile] | < 100 | –

— patent publication US11028066B2, “Inhibitors of lysine specific demethylase-1” (CELGENE QUANTICEL RESEARCH, INC., priority 2014, dated 2021)
